Assay results reported in US12673945B2, “3-((8-((1H-pyrazol-4-yl)amino)imidazo[1,2-a]pyridin-3-yl)ethinyl)-n-phenylbenzamide derivative, method for preparing same, and pharmaceutical composition containing same as active ingredient for prevention or treatment of cancer” (DAEGU-GYEONGBUK MEDICAL INNOVATION FOUNDATION, priority 2020, dated 2026).

Legend:
Experiment in all cases: scanMAX Kinase panel (DiscoverX)
Type in all cases: binding
HCK = molecular target: T1, HCK (Homo sapiens, UniProt P08631); details: read-out: % Cont @ 1 uM
T1 construct: purchased DiscoverX scanMAX Kinase panel
T1 sequence (P08631 whole entry): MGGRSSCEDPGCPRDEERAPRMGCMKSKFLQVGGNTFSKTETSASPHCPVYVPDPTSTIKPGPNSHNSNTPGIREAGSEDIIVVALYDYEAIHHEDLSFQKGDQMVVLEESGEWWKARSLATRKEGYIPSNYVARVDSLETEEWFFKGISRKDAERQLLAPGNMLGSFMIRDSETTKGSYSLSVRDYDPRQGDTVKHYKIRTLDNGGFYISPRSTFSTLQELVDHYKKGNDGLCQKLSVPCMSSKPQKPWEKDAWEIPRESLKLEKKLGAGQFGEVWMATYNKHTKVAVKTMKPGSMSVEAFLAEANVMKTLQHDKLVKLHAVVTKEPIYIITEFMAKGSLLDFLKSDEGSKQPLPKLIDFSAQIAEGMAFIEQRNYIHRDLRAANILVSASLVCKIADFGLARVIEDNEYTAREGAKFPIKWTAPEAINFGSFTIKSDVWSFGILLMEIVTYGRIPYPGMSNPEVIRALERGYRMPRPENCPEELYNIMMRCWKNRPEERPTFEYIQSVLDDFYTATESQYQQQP
Experimental: (§1) Among the example compounds of the present invention, the enzyme (kinase) selectivity of the selected compounds of Examples 1 and 4 was measured by requesting DiscoverX. At this time, the experiment was performed using a panel for scanMAX™ Kinase. The concentration of the drug treated to the enzyme was 1 μM in DMSO, and the percentage control (% control) was determined by the method shown in Equation 1 below. (Example Compound−Positive Control)/(Negative Control−Positive control)×100 [Equation 1]

FGFR2 = molecular target: T2, FGFR2 (Homo sapiens, UniProt P21802); details: read-out: % Cont @ 1 uM
T2 construct: purchased DiscoverX scanMAX Kinase panel
Experimental: as §1

LRRK2 = molecular target: T3, LRRK2 (Homo sapiens, UniProt Q5S007); details: read-out: % Cont @ 1 uM
T3 construct: purchased DiscoverX scanMAX Kinase panel
Experimental: as §1

BRAF = molecular target: T4, BRAF (Homo sapiens, UniProt P15056); details: read-out: % Cont @ 1 uM
T4 construct: purchased DiscoverX scanMAX Kinase panel
Experimental: as §1

MST3 = molecular target: T5, MST3 (Homo sapiens, UniProt Q9Y6E0)
T5 construct: purchased DiscoverX scanMAX Kinase panel
T5 sequence (Q9Y6E0 whole entry): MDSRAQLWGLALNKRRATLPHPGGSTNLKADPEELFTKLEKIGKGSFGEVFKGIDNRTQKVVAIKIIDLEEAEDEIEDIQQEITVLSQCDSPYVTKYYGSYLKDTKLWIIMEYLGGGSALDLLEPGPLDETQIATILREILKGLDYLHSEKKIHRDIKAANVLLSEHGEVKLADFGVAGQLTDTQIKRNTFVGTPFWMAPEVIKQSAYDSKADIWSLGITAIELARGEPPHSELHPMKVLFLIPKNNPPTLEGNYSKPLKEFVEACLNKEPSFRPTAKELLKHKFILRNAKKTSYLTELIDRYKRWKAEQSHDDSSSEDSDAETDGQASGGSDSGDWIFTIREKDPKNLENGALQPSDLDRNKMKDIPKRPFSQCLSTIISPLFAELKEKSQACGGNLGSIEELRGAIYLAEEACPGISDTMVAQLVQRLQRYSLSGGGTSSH
Experimental: as §1

KIT = molecular target: T6, KIT (Homo sapiens, UniProt P10721); details: read-out: % Cont @ 1 uM
T6 construct: purchased DiscoverX scanMAX Kinase panel
T6 sequence (P10721 26-976): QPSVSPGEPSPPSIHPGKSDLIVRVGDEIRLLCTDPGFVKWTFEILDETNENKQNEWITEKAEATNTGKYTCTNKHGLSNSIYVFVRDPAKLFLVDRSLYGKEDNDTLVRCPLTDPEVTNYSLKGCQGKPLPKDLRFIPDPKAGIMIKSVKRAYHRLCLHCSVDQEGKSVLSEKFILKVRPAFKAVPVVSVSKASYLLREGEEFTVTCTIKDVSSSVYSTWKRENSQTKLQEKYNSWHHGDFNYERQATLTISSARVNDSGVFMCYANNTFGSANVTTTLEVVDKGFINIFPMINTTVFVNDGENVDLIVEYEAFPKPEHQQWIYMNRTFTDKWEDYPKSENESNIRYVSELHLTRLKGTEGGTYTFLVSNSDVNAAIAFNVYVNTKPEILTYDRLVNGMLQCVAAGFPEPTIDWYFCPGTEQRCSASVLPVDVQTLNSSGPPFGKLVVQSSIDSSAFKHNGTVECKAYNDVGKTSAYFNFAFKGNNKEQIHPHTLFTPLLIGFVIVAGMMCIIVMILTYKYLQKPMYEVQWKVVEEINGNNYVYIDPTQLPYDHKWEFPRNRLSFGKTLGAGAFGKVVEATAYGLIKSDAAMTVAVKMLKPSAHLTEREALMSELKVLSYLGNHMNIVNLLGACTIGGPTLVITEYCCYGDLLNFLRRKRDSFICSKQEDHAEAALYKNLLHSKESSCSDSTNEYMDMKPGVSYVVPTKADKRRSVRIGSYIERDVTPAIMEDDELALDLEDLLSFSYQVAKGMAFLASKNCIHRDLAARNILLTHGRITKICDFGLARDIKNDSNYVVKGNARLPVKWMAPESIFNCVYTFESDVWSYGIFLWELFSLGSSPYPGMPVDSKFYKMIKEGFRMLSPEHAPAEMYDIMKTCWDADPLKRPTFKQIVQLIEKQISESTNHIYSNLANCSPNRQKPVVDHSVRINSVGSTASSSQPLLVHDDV
Experimental: as §1

MAP4K4 = molecular target: T7, MAP4K4 (Homo sapiens, UniProt O95819); details: read-out: % Cont @ 1 uM
T7 construct: purchased DiscoverX scanMAX Kinase panel
Experimental: as §1

EPHA7 = molecular target: T8, EPHA7 (Homo sapiens, UniProt Q15375); details: read-out: % Cont @ 1 uM
T8 construct: purchased DiscoverX scanMAX Kinase panel
Experimental: as §1

PFTK1 = molecular target: T9, PFTK1 (Homo sapiens, UniProt O94921)
T9 construct: purchased DiscoverX scanMAX Kinase panel
T9 sequence (O94921 whole entry): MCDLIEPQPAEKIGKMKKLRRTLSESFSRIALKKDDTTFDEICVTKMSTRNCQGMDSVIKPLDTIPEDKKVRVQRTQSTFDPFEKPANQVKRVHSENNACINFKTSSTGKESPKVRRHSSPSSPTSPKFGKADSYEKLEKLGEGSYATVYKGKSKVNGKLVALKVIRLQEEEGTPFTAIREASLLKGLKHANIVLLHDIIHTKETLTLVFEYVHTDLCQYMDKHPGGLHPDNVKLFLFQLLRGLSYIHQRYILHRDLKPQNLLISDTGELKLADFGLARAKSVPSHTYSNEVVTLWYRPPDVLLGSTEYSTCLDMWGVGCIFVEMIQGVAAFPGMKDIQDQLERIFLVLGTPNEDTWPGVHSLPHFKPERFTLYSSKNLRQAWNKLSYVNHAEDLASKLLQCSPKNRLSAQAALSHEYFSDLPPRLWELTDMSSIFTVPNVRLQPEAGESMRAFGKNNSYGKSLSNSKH
Experimental: as §1

SIK = molecular target: T10, SIK (Homo sapiens, UniProt P57059)
T10 construct: purchased DiscoverX scanMAX Kinase panel
Experimental: as §1

FRK = molecular target: T11, FRK (Homo sapiens, UniProt P42685); details: read-out: % Cont @ 1 uM
T11 construct: purchased DiscoverX scanMAX Kinase panel
Experimental: as §1

PCTK2 = molecular target: T12, PCTK2 (Homo sapiens, UniProt Q00537); details: read-out: % Cont @ 1 uM
T12 construct: purchased DiscoverX scanMAX Kinase panel
Experimental: as §1

EGFR = molecular target: T13, EGFR (Homo sapiens, UniProt P00533)
T13 construct: purchased DiscoverX scanMAX Kinase panel
Experimental: as §1

MINK = molecular target: T14, MINK (Homo sapiens, UniProt Q8N4C8); details: read-out: % Cont @ 1 uM
T14 construct: purchased DiscoverX scanMAX Kinase panel
Experimental: as §1

MET(Y1235D) = molecular target: T15, MET(Y1235D) (Homo sapiens, UniProt P08581, Y1235D)
T15 construct: purchased DiscoverX scanMAX Kinase panel
Experimental: as §1

LYN = molecular target: T16, LYN (Homo sapiens, UniProt P07948); details: read-out: % Cont @ 1 uM
T16 construct: purchased DiscoverX scanMAX Kinase panel
Experimental: as §1

IKK-alpha = molecular target: T17, IKK-alpha (Homo sapiens, UniProt O15111); details: read-out: % Cont @ 1 uM
T17 construct: purchased DiscoverX scanMAX Kinase panel
T17 sequence (O15111 whole entry): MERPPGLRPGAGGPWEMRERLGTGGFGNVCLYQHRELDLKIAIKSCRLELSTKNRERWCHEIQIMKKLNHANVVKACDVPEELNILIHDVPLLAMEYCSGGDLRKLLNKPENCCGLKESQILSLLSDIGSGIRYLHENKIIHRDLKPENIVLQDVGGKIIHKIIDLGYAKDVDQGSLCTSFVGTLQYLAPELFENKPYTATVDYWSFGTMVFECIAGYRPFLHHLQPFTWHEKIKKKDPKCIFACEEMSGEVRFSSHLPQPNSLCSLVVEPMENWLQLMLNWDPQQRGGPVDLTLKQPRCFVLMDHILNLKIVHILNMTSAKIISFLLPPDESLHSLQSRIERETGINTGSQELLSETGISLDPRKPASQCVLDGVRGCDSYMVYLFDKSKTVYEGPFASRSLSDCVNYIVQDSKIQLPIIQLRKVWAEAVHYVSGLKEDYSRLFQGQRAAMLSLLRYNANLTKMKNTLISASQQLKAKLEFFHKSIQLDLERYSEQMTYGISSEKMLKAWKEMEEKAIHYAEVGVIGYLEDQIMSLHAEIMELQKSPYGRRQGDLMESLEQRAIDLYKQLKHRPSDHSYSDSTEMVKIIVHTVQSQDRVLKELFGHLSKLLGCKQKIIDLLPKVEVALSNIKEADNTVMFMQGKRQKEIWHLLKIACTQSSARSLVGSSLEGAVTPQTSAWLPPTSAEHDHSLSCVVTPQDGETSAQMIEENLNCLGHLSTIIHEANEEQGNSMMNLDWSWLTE
Experimental: as §1

EPHA4 = molecular target: T18, EPHA4 (Homo sapiens, UniProt P54764); details: read-out: % Cont @ 1 uM
T18 construct: purchased DiscoverX scanMAX Kinase panel
Experimental: as §1

CDKL2 = molecular target: T19, CDKL2 (Homo sapiens, UniProt Q92772); details: read-out: % Cont @ 1 uM
T19 construct: purchased DiscoverX scanMAX Kinase panel
Experimental: as §1

MEK5 = molecular target: T20, MEK5 (Homo sapiens, UniProt Q13163); details: read-out: % Cont @ 1 uM
T20 construct: purchased DiscoverX scanMAX Kinase panel
Experimental: as §1

FLT3 = molecular target: T21, FLT3 (Homo sapiens, UniProt P36888); details: read-out: % Cont @ 1 uM
T21 construct: purchased DiscoverX scanMAX Kinase panel
Experimental: as §1

ABL1-phosphorylated = molecular target: T22, ABL1-phosphorylated (Homo sapiens, UniProt P00519); details: read-out: % Cont @ 1 uM
T22 construct: purchased DiscoverX scanMAX Kinase panel
Experimental: as §1

LOK = molecular target: T23, LOK (Homo sapiens, UniProt O94804)
T23 construct: purchased DiscoverX scanMAX Kinase panel
Experimental: as §1

TRKC = molecular target: T24, TRKC (Homo sapiens, UniProt Q16288); details: read-out: % Cont @ 1 uM
T24 construct: purchased DiscoverX scanMAX Kinase panel
Experimental: as §1

LTK = molecular target: T25, LTK (Homo sapiens, UniProt P29376); details: read-out: % Cont @ 1 uM
T25 construct: purchased DiscoverX scanMAX Kinase panel
Experimental: as §1

[1] = molecular target: T26, ABL1(H396P)-phosphorylated (Homo sapiens, UniProt P00519, H396P); details: read-out: % Cont @ 1 uM
T26 construct: purchased DiscoverX
Experimental: as §1

[2] = molecular target: T27, ABL1(F317I)-nonphosphorylated (Homo sapiens, UniProt P00519, F317I); details: read-out: % Cont @ 1 uM
T27 construct: purchased DiscoverX
Experimental: as §1

DDR2 = molecular target: T28, DDR2 (Homo sapiens, UniProt Q16832); details: read-out: % Cont @ 1 uM
T28 construct: purchased DiscoverX scanMAX Kinase panel
Experimental: as §1

CIT = molecular target: T29, CIT (Homo sapiens, UniProt O14578)
T29 construct: purchased DiscoverX scanMAX Kinase panel
Experimental: as §1

TAOK3 = molecular target: T30, TAOK3 (Homo sapiens, UniProt Q9H2K8); details: read-out: % Cont @ 1 uM
T30 construct: purchased DiscoverX scanMAX Kinase panel
T30 sequence (Q9H2K8 whole entry): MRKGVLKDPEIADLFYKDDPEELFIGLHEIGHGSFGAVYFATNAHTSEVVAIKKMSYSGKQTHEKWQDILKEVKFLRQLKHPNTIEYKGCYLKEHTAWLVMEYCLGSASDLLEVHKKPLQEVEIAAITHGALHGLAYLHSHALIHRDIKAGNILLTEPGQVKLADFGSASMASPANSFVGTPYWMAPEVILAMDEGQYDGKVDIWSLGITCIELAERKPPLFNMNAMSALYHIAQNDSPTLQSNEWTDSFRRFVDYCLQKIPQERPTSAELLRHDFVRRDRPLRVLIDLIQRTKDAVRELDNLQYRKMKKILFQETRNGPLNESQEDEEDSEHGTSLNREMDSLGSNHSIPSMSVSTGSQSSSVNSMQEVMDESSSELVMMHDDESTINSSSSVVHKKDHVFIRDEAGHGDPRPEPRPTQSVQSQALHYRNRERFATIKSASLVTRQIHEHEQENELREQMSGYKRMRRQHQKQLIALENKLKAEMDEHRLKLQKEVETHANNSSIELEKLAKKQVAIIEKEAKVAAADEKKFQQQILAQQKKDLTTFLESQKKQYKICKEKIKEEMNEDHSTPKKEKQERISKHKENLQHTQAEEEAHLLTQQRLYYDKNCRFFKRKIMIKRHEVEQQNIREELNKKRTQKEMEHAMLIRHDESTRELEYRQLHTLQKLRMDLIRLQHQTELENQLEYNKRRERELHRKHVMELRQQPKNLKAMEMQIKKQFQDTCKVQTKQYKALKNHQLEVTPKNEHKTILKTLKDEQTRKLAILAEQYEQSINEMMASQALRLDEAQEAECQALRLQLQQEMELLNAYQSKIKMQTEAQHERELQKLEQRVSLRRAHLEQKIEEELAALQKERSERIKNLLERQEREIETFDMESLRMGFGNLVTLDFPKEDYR
Experimental: as §1

TNK1 = molecular target: T31, TNK1 (Homo sapiens, UniProt Q13470); details: read-out: % Cont @ 1 uM
T31 construct: purchased DiscoverX scanMAX Kinase panel
Experimental: as §1

[3] = molecular target: T32, EGFR(L747-E749del, A750P) (Homo sapiens, UniProt P00533, A750P/DEL747-749)
T32 construct: purchased DiscoverX scanMAX Kinase panel
Experimental: as §1

ERBB4 = molecular target: T33, ERBB4 (Homo sapiens, UniProt Q15303); details: read-out: % Cont @ 1 uM
T33 construct: purchased DiscoverX scanMAX Kinase panel
Experimental: as §1

KIT(L576P) = molecular target: T34, KIT(L576P) (Homo sapiens, UniProt P10721, L576P); details: read-out: % Cont @ 1 uM
T34 construct: purchased DiscoverX scanMAX Kinase panel
T34 sequence (P10721 26-976 L576P): as the sequence (P10721 26-976) above, with L551P counted along it
Experimental: as §1

FER = molecular target: T35, FER (Homo sapiens, UniProt P16591); details: read-out: % Cont @ 1 uM
T35 construct: purchased DiscoverX scanMAX Kinase panel
Experimental: as §1

EPHA1 = molecular target: T36, EPHA1 (Homo sapiens, UniProt P21709); details: read-out: % Cont @ 1 uM
T36 construct: purchased DiscoverX scanMAX Kinase panel
Experimental: as §1

FES = molecular target: T37, FES (Homo sapiens, UniProt P07332); details: read-out: % Cont @ 1 uM
T37 construct: purchased DiscoverX scanMAX Kinase panel
T37 sequence (P07332 whole entry): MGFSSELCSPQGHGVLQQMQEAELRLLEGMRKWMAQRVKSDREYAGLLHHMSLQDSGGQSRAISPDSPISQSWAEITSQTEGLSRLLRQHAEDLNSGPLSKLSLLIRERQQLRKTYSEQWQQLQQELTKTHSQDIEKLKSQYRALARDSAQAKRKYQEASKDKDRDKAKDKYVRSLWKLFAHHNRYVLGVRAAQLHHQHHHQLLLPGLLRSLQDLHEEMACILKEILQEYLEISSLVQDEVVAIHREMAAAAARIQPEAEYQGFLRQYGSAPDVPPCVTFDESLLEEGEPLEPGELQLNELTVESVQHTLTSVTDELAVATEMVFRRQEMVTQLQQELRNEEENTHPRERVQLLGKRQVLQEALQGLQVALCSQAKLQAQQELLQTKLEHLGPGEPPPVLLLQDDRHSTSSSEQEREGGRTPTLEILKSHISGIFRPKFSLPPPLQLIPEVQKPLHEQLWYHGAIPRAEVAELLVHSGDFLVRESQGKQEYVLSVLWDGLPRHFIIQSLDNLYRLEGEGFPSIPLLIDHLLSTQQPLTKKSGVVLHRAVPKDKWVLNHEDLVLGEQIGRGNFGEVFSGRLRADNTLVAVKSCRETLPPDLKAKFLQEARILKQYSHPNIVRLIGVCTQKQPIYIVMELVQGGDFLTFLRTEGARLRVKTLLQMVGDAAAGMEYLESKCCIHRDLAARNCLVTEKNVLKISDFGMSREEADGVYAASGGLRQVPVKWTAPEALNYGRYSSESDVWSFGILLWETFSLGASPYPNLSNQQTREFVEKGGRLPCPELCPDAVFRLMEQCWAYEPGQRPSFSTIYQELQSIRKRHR
Experimental: as §1

MAP4K5 = molecular target: T38, MAP4K5 (Homo sapiens, UniProt Q9Y4K4); details: read-out: % Cont @ 1 uM
T38 construct: purchased DiscoverX scanMAX Kinase panel
Experimental: as §1

FGFR3(G697C) = molecular target: T39, FGFR3(G697C) (Homo sapiens, UniProt P22607, G697C); details: read-out: % Cont @ 1 uM
T39 construct: purchased DiscoverX scanMAX Kinase panel
Experimental: as §1

SMILES	remaining binding at 1 µM (HCK) [%]	remaining binding at 1 µM (FGFR2) [%]	remaining binding at 1 µM (LRRK2) [%]	remaining binding at 1 µM (BRAF) [%]	% Cont @ 1 uM (MST3) [%]	percent of control binding at 1 µM (KIT) [%]	remaining binding at 1 µM (MAP4K4) [%]	remaining binding at 1 µM (EPHA7) [%]	% Cont @ 1 uM (PFTK1) [%]	% Cont @ 1 uM (SIK) [%]	remaining binding at 1 µM (FRK) [%]	remaining binding at 1 µM (PCTK2) [%]	% Cont @ 1 uM (EGFR) [%]	percent of control binding at 1 µM (MINK) [%]	% Cont @ 1 uM (MET(Y1235D)) [%]	percent of control binding at 1 µM (LYN) [%]	remaining binding at 1 µM (IKK-alpha) [%]	remaining binding at 1 µM (EPHA4) [%]	remaining binding at 1 µM (CDKL2) [%]	remaining binding at 1 µM (MEK5) [%]	also measured
Cc1cn(-c2cc(NC(=O)c3cc(C#Cc4cnc5c(Nc6cnn(C)c6)cccn45)c(C)cc3F)cc(C(F)(F)F)c2)cn1 [Example 4, 2-fluoro-4-methyl-N-(3-(4-methyl-1H-imidazol-1-yl)-5-(trifluoromethyl)phenyl)-5-((8-((1-methyl-1H-pyrazol-4-yl)amino)imidazo[1,2-a]pyridin-3-yl)ethynyl)benzamide]	0.65	61	92	34	70	1.6	15	63	94	14	26	85	79	88	87	4.7	35	28	14	1.2	remaining binding at 1 µM (FLT3): 1.9%; remaining binding at 1 µM (ABL1-phosphorylated): 8.4%; % Cont @ 1 uM (LOK): 0.2%; remaining binding at 1 µM (TRKC): 1.4%; remaining binding at 1 µM (LTK): 8.7%; remaining binding at 1 µM [1]: 9.6%; remaining binding at 1 µM [2]: 2.8%; remaining binding at 1 µM (DDR2): 6.5%; % Cont @ 1 uM (CIT): 0.45%; remaining binding at 1 µM (TAOK3): 12%; remaining binding at 1 µM (TNK1): 31%; % Cont @ 1 uM [3]: 24%; remaining binding at 1 µM (ERBB4): 46%; remaining binding at 1 µM (KIT(L576P)): 2.8%; remaining binding at 1 µM (FER): 71%; remaining binding at 1 µM (EPHA1): 37%; remaining binding at 1 µM (FES): 55%; remaining binding at 1 µM (MAP4K5): 38%; remaining binding at 1 µM (FGFR3(G697C)): 90%
Cc1cn(-c2cc(NC(=O)c3cc(C#Cc4cnc5c(Nc6cnn(C)c6)cccn45)c(C)cc3F)cc(C(C)(C)C#N)c2)cn1 [Example 1, N-(3-(2-cyanopropane-2-yl)-5-(4-methyl-1H-imidazol-1-yl)phenyl)-2-fluoro-4-methyl-5-((8-((1-methyl-1H-pyrazol-4-yl)amino)imidazo[1,2-a]pyridin-3-yl)ethynyl)benzamide]	0.2	30	27	13	20	0	0.75	16	8.3	2	1.6	23	29	2.4	17	0.5	31	26	0.7	0	remaining binding at 1 µM (FLT3): 2%; remaining binding at 1 µM (ABL1-phosphorylated): 0.45%; % Cont @ 1 uM (LOK): 0.05%; remaining binding at 1 µM (TRKC): 0.05%; remaining binding at 1 µM (LTK): 3.4%; remaining binding at 1 µM [1]: 0.55%; remaining binding at 1 µM [2]: 50%; remaining binding at 1 µM (DDR2): 2%; % Cont @ 1 uM (CIT): 0.1%; remaining binding at 1 µM (TAOK3): 1.6%; remaining binding at 1 µM (TNK1): 30%; % Cont @ 1 uM [3]: 11%; remaining binding at 1 µM (ERBB4): 18%; remaining binding at 1 µM (KIT(L576P)): 1.4%; remaining binding at 1 µM (FER): 10%; remaining binding at 1 µM (EPHA1): 4.1%; remaining binding at 1 µM (FES): 1.6%; remaining binding at 1 µM (MAP4K5): 0.95%; remaining binding at 1 µM (FGFR3(G697C)): 7.5%
